Data: patent US20160143884A1, “USE OF TETRAHYDROINDAZOLYLBENZAMIDE AND TETRAHYDROINDOLYLBENZAMIDE DERIVATIVES FOR THE TREATMENT OF HUMAN IMMUNODEFICIENCY VIRUS (HIV) AND ACQUIRED IMMUNE DEFICIENCY SYNDROME (AIDS)” (Esanex, Inc., priority 2014, published 2016)

Experiments:
HIV-1 = experiment: HIV virus inhibition, p24 in supernatant by ELISA; assay type: cell-based; settings: for EC50: Human immunodeficiency virus 1, HIV-1, p24 ELISA of supernatant
Experimental: (§1) Several additional compounds were also tested for HIV virus inhibition, and the results are show in Table 5. P24 concentration in the supernatant was measured using a commercial ELISA assay. Toxicity was assessed by counting live cells (trypan blue exclusion)

HIV reactivation = settings: Anderson et al., PNAS 2014; cited from earlier work
[1] = Toxicity by counting live cells (trypan blue exclusion); assay type: cell-based; settings: live cell count, read-out: Cytotoxicity TC50
Experimental: as §1

integration = settings: Vozzolo et al., J. Biol. Chem. 2010; cited from earlier work
Hepatitis B Virus (HBV) = experiment: Anti-HBV assay, real-time qPCR of extracellular HBV DNA in HepG2 2.2.15; assay type: cell-based
Experimental: The anti-HBV assay employed real-time qPCR (TaqMan) to directly measure extracellular HBV DNA copy number. HepG2-2.2.15 cells were plated in 96-well microtiter plates. Only the interior wells were utilized to reduce “edge effects” observed during cell culture; the exterior wells were filled with complete medium to help minimize sample evaporation. After 16-24 hours the confluent monolayer of HepG2-2.2.15 cells was washed and the medium replaced with complete medium containing various concentrations of a test compound in triplicate. 3TC was used as positive control, while media alone was added to cells as negative control (virus control, VC). Three days later the culture medium was replaced with fresh medium containing the appropriately diluted drug. Six days following the initial administration of the test compound, the cell culture supernatant collected, treated with pronase and then used in a real-time quantitative TaqMan qPCR assay. The PCR-amplified HBV DNA was detected in real-time by monitoring increases in fluorescence signals that result from the exonucleolytic degradation of a quenched fluorescent probe molecule that hybridizes to the amplified HBV DNA. For each PCR amplification, a standard curve was simultaneously generated using dilutions of purified HBV DNA. Antiviral activity was calculated from the reduction in HBV DNA levels (IC50). CellTiter 96® AQueous One Solution Cell Proliferation Assay kit (Promega) was employed to measure cell viability which was used to calculate cytotoxicity (TC50). The therapeutic index (TI) was calculated as TC50/IC50.

[2] = Cell viability (CellTiter 96 AQueous One) in HepG2 2.2.15; assay type: cell-based; settings: human, HepG2-2.2.15 cells, read-out: Cytotoxicity TC50
Experimental: The anti-HBV assay employed real-time qPCR (TaqMan) to directly measure extracellular HBV DNA copy number. HepG2-2.2.15 cells were plated in 96-well microtiter plates. Only the interior wells were utilized to reduce “edge effects” observed during cell culture; the exterior wells were filled with complete medium to help minimize sample evaporation. After 16-24 hours the confluent monolayer of HepG2-2.2.15 cells was washed and the medium replaced with complete medium containing various concentrations of a test compound in triplicate. 3TC was used as positive control, while media alone was added to cells as negative control (virus control, VC). Three days later the culture medium was replaced with fresh medium containing the appropriately diluted drug. Six days following the initial administration of the test compound, the cell culture supernatant collected, treated with pronase and then used in a real-time quantitative TaqMan qPCR assay. The PCR-amplified HBV DNA was detected in real-time by monitoring increases in fluorescence signals that result from the exonucleolytic degradation of a quenched fluorescent probe molecule that hybridizes to the amplified HBV DNA. […] Antiviral activity was calculated from the reduction in HBV DNA levels (IC50). […] The therapeutic index (TI) was calculated as TC50/IC50.

Cc1nn(-c2ccc(C(N)=O)c(NCCOCCOCCN)c2)c2c1C(=O)CC(C)(C)C2 [Compound 5, 2-((2-(2-(2-aminoethoxy)ethoxy)ethyl)amino)-4-(3,6,6-trimethyl-4-oxo-4,5,6,7-tetrahydro-1H-indazol-1-yl)benzamide]
EC50 (HIV-1): 2.16 µM

CCNC(=O)c1noc(-c2cc(C(C)C)c(O)cc2O)c1-c1ccc(CN2CCOCC2)cc1 [AUY922]
Suppression of HIV reactivation (HIV reactivation): almost completely suppressed

COCCNc1cc(-n2nc(C)c3c2CC(C)(C)CC3=O)ccc1C(N)=O [Compound 3, 2-((2-methoxyethyl)amino)-4-(3,6,6-trimethyl-4-oxo-4,5,6,7-tetrahydro-1H-indazol-1-yl)benzamide]
Selectivity Index TI (TC50/EC50) (HIV-1): 901 | EC50 (HIV-1): 0.0013 µM | CC50 [1]: 1.16 µM

COCCCNc1cc(-n2nc(C)c3c2CC(C)(C)CC3=O)ccc1C(N)=O [Compound 7, 2-((3-methoxypropyl)amino)-4-(3,6,6-trimethyl-4-oxo-4,5,6,7-tetrahydro-1H-indazol-1-yl)benzamide]
EC50 (HIV-1): 0.081 µM

Cc1nn(-c2ccc(C(N)=O)c(NCCO)c2)c2c1C(=O)CC(C)(C)C2 [Compound 2, 2-((2-hydroxyethyl)amino)-4-(3,6,6-trimethyl-4-oxo-4,5,6,7-tetrahydro-1H-indazol-1-yl)benzamide]
Selectivity Index TI (TC50/EC50) (HIV-1): 12 | EC50 (HIV-1): 0.052 µM | CC50 [1]: 0.617 µM

CCOCCCNc1cc(-n2nc(C)c3c2CC(C)(C)CC3=O)ccc1C(N)=O [Compound 8, 2-((3-ethoxypropyl)amino)-4-(3,6,6-trimethyl-4-oxo-4,5,6,7-tetrahydro-1H-indazol-1-yl)benzamide]
EC50 (HIV-1): 0.042 µM

Cc1nn(-c2ccc(C(N)=O)c(NC3CCC(O)CC3)c2)c2c1C(=O)CC(C)(C)C2 (stereo not drawn) [Compound 1, 2-((4-hydroxycyclohexyl)amino)-4-(3,6,6-trimethyl-4-oxo-4,5,6,7-tetrahydro-1H-indazol-1-yl)benzamide]
Selectivity Index TI (TC50/EC50) (HIV-1): 54 | EC50 (HIV-1): 0.0081 µM | CC50 [1]: 0.436 µM

Cc1nn(-c2ccc(C(N)=O)c(NCCCO)c2)c2c1C(=O)CC(C)(C)C2 [Compound 6, 2-((3-hydroxypropyl)amino)-4-(3,6,6-trimethyl-4-oxo-4,5,6,7-tetrahydro-1H-indazol-1-yl)benzamide]
EC50 (HIV-1): 0.032 µM

CCOCCNc1cc(-n2nc(C)c3c2CC(C)(C)CC3=O)ccc1C(N)=O [Compound 4, 2-((2-ethoxyethyl)amino)-4-(3,6,6-trimethyl-4-oxo-4,5,6,7-tetrahydro-1H-indazol-1-yl)benzamide]
Selectivity Index TI (TC50/EC50) (HIV-1): 24 | EC50 (HIV-1): 0.089 µM | CC50 [1]: 2.17 µM

C=CCNC1=C2C[C@@H](C)C[C@H](OC)[C@H](O)[C@@H](C)/C=C(\C)[C@H](OC(N)=O)[C@@H](OC)/C=C\C=C(/C)C(=O)NC(=CC1=O)C2=O [17-allylamino-17-demethoxy-geldanamycin]
Effect on integration (integration): no effect

Nc1ccn([C@@H]2CS[C@H](CO)O2)c(=O)n1 [Compound 3TC, 2′,3′-dideoxy-3′-thiacytidine, reference compound]
Selectivity Index TI (TC50/IC50) (Hepatitis B Virus (HBV); HBV in HepG2 2.2.15): >14.0 | IC50 (Hepatitis B Virus (HBV); Hepatitis B virus, 144 h, HBV in HepG2 2.2.15, six days, read-out: Antiviral Activity IC50 (reduction in HBV DNA levels)): 0.0356 µM | CC50 at 6 days [2]: > 0.5 µM
